The test system of this assay is L1210 leukemia ip in BDF1 mice, survival T/C. Nature of the assay: NCI In Vivo Anticancer Drug Screen. Data for tumor model L1210 Leukemia (intraperitoneal) in B6D2F1 (BDF1) mice. As to conditions: endpoint: mean survival time, higher = longer survival. Summed up:
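Value reflects the ratio of survival in compound-treated mice to survival in vehicle-treated controls, with both groups carrying the same transplanted tumor.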

The mark [1] stands for this setting: dose: 75.0 mg/kg/injection, schedule: Q04DX003 (ip), vehicle: saline.
The mark [2] stands for this setting: dose: 150.0 mg/kg/injection, schedule: Q04DX003 (ip), vehicle: saline.
[3] abbreviates: dose: 300.0 mg/kg/injection, schedule: Q04DX003 (ip), vehicle: saline.
[4] abbreviates: dose: 100.0 mg/kg/injection, schedule: Q04DX003 (ip), vehicle: saline with Tween-80.
The mark [5] stands for this setting: dose: 100.0 mg/kg/injection, schedule: Q01DX009 (ip), vehicle: Klucel (hydroxypropylcellulose) (HPC).
Setting [6] is: dose: 200.0 mg/kg/injection, schedule: Q01DX009 (ip), vehicle: Klucel (hydroxypropylcellulose) (HPC).
The mark [7] stands for this setting: dose: 100.0 mg/kg/injection, schedule: Q01DX001 (ip), vehicle: Klucel (hydroxypropylcellulose) (HPC).
Setting [8] is: dose: 200.0 mg/kg/injection, schedule: Q01DX001 (ip), vehicle: Klucel (hydroxypropylcellulose) (HPC).
The mark [9] stands for this setting: dose: 100.0 mg/kg/injection, schedule: Q01DX001 (ip), vehicle: saline.
Where [10] appears, read: dose: 100.0 mg/kg/injection, schedule: Q04DX003 (ip), vehicle: saline.
[11] abbreviates: dose: 200.0 mg/kg/injection, schedule: Q04DX003 (ip), vehicle: saline.
[12] abbreviates: dose: 400.0 mg/kg/injection, schedule: Q04DX003 (ip), vehicle: saline.
Where [13] appears, read: dose: 100.0 mg/kg/injection, schedule: Q01DX009 (ip), vehicle: saline with Tween-80.
The mark [14] stands for this setting: dose: 200.0 mg/kg/injection, schedule: Q01DX009 (ip), vehicle: saline with Tween-80.
Where [15] appears, read: dose: 25.0 mg/kg/injection, schedule: Q01DX009 (ip), vehicle: saline with Tween-80.
[16] abbreviates: dose: 50.0 mg/kg/injection, schedule: Q01DX009 (ip), vehicle: saline with Tween-80.
[17] abbreviates: dose: 200.0 mg/kg/injection, schedule: Q01DX001 (ip), vehicle: saline.
[18] abbreviates: dose: 400.0 mg/kg/injection, schedule: Q01DX001 (ip), vehicle: saline.

Several values for one entry are separate records, joined by “and”; a condition that tells them apart may be missing. Equal values may be shown once. Toxic doses and inconclusive results are not listed.

On to `CCn1c2ccccc2c2c(C)c3cnccc3c(C)c21`, for which the T/C runs as follows: (dose: 37.5 mg/kg/injection, schedule: Q04DX003 (ip), vehicle: saline) 94 % of control; (dose: 62.5 mg/kg/injection, schedule: Q01DX009 (ip), vehicle: saline with Tween-80) 193 % of control; under setting [1], 90 % of control; (dose: 125.0 mg/kg/injection, schedule: Q01DX009 (ip), vehicle: saline with Tween-80) 101 % of control; under setting [2], 92 % of control; (dose: 250.0 mg/kg/injection, schedule: Q01DX009 (ip), vehicle: saline with Tween-80) 105 % of control. In addition, the T/C under setting [3] was 94 % of control.

For `C#CC(O)(c1ccccc1)c1ccc(N(C)C)cc1` (configuration not stated), the T/C by setting is: under setting [4], 98 % of control; (dose: 200.0 mg/kg/injection, schedule: Q04DX003 (ip), vehicle: saline with Tween-80) 100 % of control; (dose: 400.0 mg/kg/injection, schedule: Q04DX003 (ip), vehicle: saline with Tween-80) 89 % of control.

As for `Cc1nc(Cl)c2c(n1)Oc1nc(C)nc(Cl)c1C2c1ccc(Cl)cc1`, the T/C is 97 % of control (dose: 50.0 mg/kg/injection, schedule: Q04DX003 (ip), vehicle: Klucel (hydroxypropylcellulose) (HPC)); 96 % of control under setting [5]; 97 % of control (dose: 100.0 mg/kg/injection, schedule: Q04DX003 (ip), vehicle: Klucel (hydroxypropylcellulose) (HPC)); 97 % of control under setting [6]; 101 % of control (dose: 200.0 mg/kg/injection, schedule: Q04DX003 (ip), vehicle: Klucel (hydroxypropylcellulose) (HPC)); 107 % of control (dose: 400.0 mg/kg/injection, schedule: Q01DX009 (ip), vehicle: Klucel (hydroxypropylcellulose) (HPC)). Besides, under “dose: 400.0 mg/kg/injection, schedule: Q04DX003 (ip), vehicle: Klucel (hydroxypropylcellulose) (HPC)”, the T/C was 95 % of control.

Take `O=C1OCCN1N1C(=O)CC2(CCCCC2)C1=O`: the T/C (dose: 50.0 mg/kg/injection, schedule: Q01DX001 (ip), vehicle: Klucel (hydroxypropylcellulose) (HPC)) is 100 % of control; the T/C under setting [7] is 107 % of control; the T/C under setting [8] was 97 % of control.

In the case of `O=C(O)CC1(C(=O)O)CC2CCC1C2` (configuration not stated), the T/C (dose: 100.0 mg/kg/injection, schedule: Q01DX009 (ip), vehicle: carboxymethylcellulose (CMC)) was 91 % of control; the T/C (dose: 100.0 mg/kg/injection, schedule: Q04DX003 (ip), vehicle: carboxymethylcellulose (CMC)) is 103 % of control; the T/C (dose: 200.0 mg/kg/injection, schedule: Q01DX009 (ip), vehicle: carboxymethylcellulose (CMC)) was 94 % of control; the T/C (dose: 200.0 mg/kg/injection, schedule: Q04DX003 (ip), vehicle: carboxymethylcellulose (CMC)) was 103 % of control; the T/C (dose: 400.0 mg/kg/injection, schedule: Q01DX009 (ip), vehicle: carboxymethylcellulose (CMC)) is 92 % of control; the T/C (dose: 400.0 mg/kg/injection, schedule: Q04DX003 (ip), vehicle: carboxymethylcellulose (CMC)) is 100 % of control.

For `CCCN1C(=O)CCC1=O`, the T/C runs as follows: under setting [1], 109 % of control; under setting [2], 97 % of control; under setting [3], 101 % of control.

`CC(C)CCC1(c2ccccc2)C(=O)NC(=O)NC1=O`: the T/C under setting [9] is 92 % of control.

Take `Oc1ccccc1/C=N\Nc1ccccc1`: the T/C is, setting by setting: under setting [10], 100 % of control; under setting [11], 95 % of control; under setting [12], 103 % of control.

In the case of `COC(=O)c1ccc(OC(=O)Nc2cccc(Cl)c2C)cc1`, the T/C reads like this: under setting [13], 98 % of control and 100 % of control; (dose: 100.0 mg/kg/injection, schedule: Q04DX002 (ip), vehicle: saline with Tween-80) 93 % of control and 91 % of control; under setting [14], 95 % of control and 91 % of control; (dose: 200.0 mg/kg/injection, schedule: Q04DX002 (ip), vehicle: saline with Tween-80) 96 % of control and 87 % of control; (dose: 400.0 mg/kg/injection, schedule: Q04DX002 (ip), vehicle: saline with Tween-80) 96 % of control and 97 % of control.

With `CCC(=O)N/N=C/C=N/NC(=O)c1ccncc1`, the T/C (dose: 75.0 mg/kg/injection, schedule: Q01DX001 (ip), vehicle: saline) is 96 % of control; the T/C under setting [7] was 97 % of control; the T/C under setting [5] is 93 % of control; the T/C (dose: 150.0 mg/kg/injection, schedule: Q01DX001 (ip), vehicle: saline) was 99 % of control; the T/C under setting [8] was 101 % of control; the T/C under setting [6] was 100 % of control. Further, the T/C was 92 % of control (dose: 300.0 mg/kg/injection, schedule: Q01DX001 (ip), vehicle: saline) and 94 % of control (dose: 400.0 mg/kg/injection, schedule: Q01DX001 (ip), vehicle: Klucel (hydroxypropylcellulose) (HPC)).

Consider `CC(=O)C(C(C)=O)C(c1ccc2c(c1)OCO2)C(C(C)=O)C(C)=O`, for which the T/C is 93 % of control (dose: 12.5 mg/kg/injection, schedule: Q01DX009 (ip), vehicle: saline with Tween-80); 92 % of control under setting [15]; 93 % of control and 92 % of control under setting [16]; 86 % of control under setting [4].

As to `CCOC(=O)CN(c1c(C)cc(C)c(N(CC(=O)OCC)S(=O)(=O)c2ccccc2)c1C)S(=O)(=O)c1ccccc1`, the T/C by setting is: under setting [10], 93 % of control; under setting [11], 101 % of control; under setting [12], 93 % of control.

For `CSc1nc(O)c(-c2ccccc2)c(=O)[nH]1`, the T/C is 103 % of control (dose: 100.0 mg/kg/injection, schedule: Q01DX Z (ip), vehicle: methylcellulose (MC)) and 101 % of control (dose: 200.0 mg/kg/injection, schedule: Q01DX Z (ip), vehicle: methylcellulose (MC)).

For `C=CC1CN(CCc2cc3ccccc3[nH]2)CCC1CC(=O)OCC` (configuration not stated), the T/C is, setting by setting: under setting [13], 91 % of control; under setting [14], 96 % of control; (dose: 400.0 mg/kg/injection, schedule: Q01DX009 (ip), vehicle: saline with Tween-80) 97 % of control.

In the case of `O=c1cc(C23CC4CC(CC(C4)C2)C3)[nH]c(=S)[nH]1`, the T/C (dose: 100.0 mg/kg/injection, schedule: Q01DX001 (ip), vehicle: saline with Tween-80) was 92 % of control; the T/C (dose: 200.0 mg/kg/injection, schedule: Q01DX001 (ip), vehicle: saline with Tween-80) was 108 % of control; the T/C (dose: 400.0 mg/kg/injection, schedule: Q01DX001 (ip), vehicle: saline with Tween-80) was 94 % of control.

Regarding `CC12CC(c3ccoc3)OC(=O)C1CCC1(C)C2C2C=CC1(O)C(=O)O2` (configuration not stated), the T/C under setting [9] is 104 % of control, the T/C under setting [17] was 98 % of control and the T/C under setting [18] was 104 % of control.

For `CCCC[S][Pb]([c]1ccccc1)([c]1ccccc1)[c]1ccccc1`, the T/C reads like this: under setting [7], 101 % of control; under setting [8], 106 % of control.

In the case of `COP(=O)(OC)Oc1c(Cl)c(OP(=O)(OC)OC)c(Cl)c(OP(=O)(OC)OC)c1Cl`, the T/C reads like this: (dose: 100.0 mg/kg/injection, schedule: Q04DX002 (ip), vehicle: Klucel (hydroxypropylcellulose) (HPC)) 115 % of control; (dose: 200.0 mg/kg/injection, schedule: Q04DX002 (ip), vehicle: Klucel (hydroxypropylcellulose) (HPC)) 100 % of control; (dose: 400.0 mg/kg/injection, schedule: Q04DX002 (ip), vehicle: Klucel (hydroxypropylcellulose) (HPC)) 86 % of control.

Turning to `S=P(Nc1ccccc1)(Nc1ccccc1)Oc1cc(Cl)c(Cl)cc1Cl`, the T/C reads like this: under setting [9], 92 % of control; under setting [17], 93 % of control; under setting [18], 92 % of control.

Turning to `CCCCCCCCCCCCCCCCCC(=O)OCCC(C)CCCC(C)C` (configuration not stated), the T/C runs as follows: (dose: 100.0 mg/kg/injection, schedule: Q04DX003 (ip), vehicle: other) 96 % of control; (dose: 200.0 mg/kg/injection, schedule: Q04DX003 (ip), vehicle: other) 98 % of control; (dose: 400.0 mg/kg/injection, schedule: Q04DX003 (ip), vehicle: other) 88 % of control.

As to `O=c1nc2ccc3[nH]c(O)c4ccc1c2c34`, the T/C (dose: 50.0 mg/kg/injection, schedule: Q01DX001 (ip), vehicle: saline) is 104 % of control; the T/C under setting [9] was 104 % of control; the T/C under setting [17] is 104 % of control; the T/C under setting [18] is 98 % of control.

Consider `C=CCOCCC#N`, for which the T/C is 95 % of control under setting [15], 97 % of control under setting [16] and 100 % of control under setting [13].

These data come from PubChem BioAssay AID248 (DTP/NCI, 2004).
